Where two headings read alike, the source gives them in different places.
Molecular target: T1, purified bovine erythrocyte CA-II (Bos taurus, UniProt P00921)
T1 construct: purified bovine erythrocyte CA-II; from tissue; host or cells: bovine erythrocytes
Test: Carbonic anhydrase II inhibition (4-nitrophenyl acetate hydrolysis, microplate)
Format: biochemical
Conditions: for % Inhibition: preliminary screening, test concentration not given
Procedure: The total reaction volume of 200 µL including 20 µL of test compounds, isolated from Dictyopteris hoytii, and prepared in DMSO, followed by the addition of 140 µL of HEPES–tris buffer, 20 µL of purified bovine erythrocyte CA-II (0.1 mg/mL) prepared in buffer, and 20 µL of a solution of 4-nitrophenyl acetate. Then, 20 µL of the test compound was incubated with the enzyme carbonic anhydrase (EC 4.2.1.1) for 15 min in 96-well flat bottom plates. The rate of product formation was monitored with the addition of 20 µL of 4-NPA as substrate, prepared in methanol at the final concentration of 0.7 mM, at 25 °C for 30 min with regular intervals of 1 min, by using microplate readers (Bio-Rad, Molecular Devices, CA, USA). HEPES-tris was used as a buffer for the reaction at a final concentration of 20 mM at pH 7.4.

[1] = Table 1 and text, unit given, NA = not active, read-out: IC50 ± SEM

T1 sequence (P00921 whole entry): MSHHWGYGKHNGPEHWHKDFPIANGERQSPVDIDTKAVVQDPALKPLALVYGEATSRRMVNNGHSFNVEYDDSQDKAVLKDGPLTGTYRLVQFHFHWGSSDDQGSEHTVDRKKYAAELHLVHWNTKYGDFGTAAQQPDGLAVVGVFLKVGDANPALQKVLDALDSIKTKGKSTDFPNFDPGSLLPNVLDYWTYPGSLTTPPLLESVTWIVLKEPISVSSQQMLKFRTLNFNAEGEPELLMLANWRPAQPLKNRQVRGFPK

IC50 [1] [µM] | % Inhibition [%] | Compound | IC50 [µM] | IC50 (Table 2 repeat of Table 1 values, read-out: IC50 ± S.E.M) [µM]
44.9 ± 1.1 | 79.4 | O=Cc1ccccc1/C=C/C(=O)O [Compound 1, (E)-3-(2-formylphenyl)acrylic acid] |  | 
17.7 ± 2.01 | 93.9 | COC(OC)c1ccc(/C=C/C(=O)O)cc1 [Compound 5, (E)-3-(4-(dimethoxymethyl)phenyl)acrylic acid] |  | 
16.3 ± 0.31 | 88.0 | C=CCCCCCCCCCCCCCCCC [Compound 7, octadec-1-ene] |  | 
53.1 ± 1.2 | 93.9 | O=Cc1ccc(C=O)cc1 [Compound 9, terephthalaldehyde] |  | 
24.3 ± 1.38 | 87.3 | CCCCCCCCCCCCCCCCCCC=CCCCCCCCC(=O)O [Compound 19, n-octacos-9-enoic acid] |  | 

Compound | IC50 [1] [µM] | % Inhibition [%] | IC50 [µM] | IC50 (Table 2 repeat of Table 1 values, read-out: IC50 ± S.E.M) [µM]
C/C=C(\CC[C@@H](C)[C@H]1CC[C@H]2[C@@H]3CC=C4C[C@@H](O)CC[C@]4(C)[C@H]3CC[C@]12C)C(C)C [Compound 15, fucosterol] |  | 69.8 | 31.3 ± 1.34 | 
ethyl methyl 2-bromobenzene 1,4-dioate [Compound 13] | 39.5 ± 0.73 | 87.3 |  | 39.5 ± 0.73

Reference: publication PMC8658806, “New Carbonic Anhydrase-II Inhibitors from Marine Macro Brown Alga Dictyopteris hoytii Supported by In Silico Studies” (Molecules, 2021)
